Five compounds from patent publication US6703414B2, “Device and method for treating restenosis” (Arizona Board of Regents on behalf of the University of …, priority 2001, dated 2004) can be followed below.

pIC50: −log10 of the molar value. Where only a bound is given, the exact number is not on record here.

Data set [1] deals with NCI cell panel (60 cell lines). In words: cytotoxicity NCI cell panel, MTT assay. The following applies: 48 h, read-out: cytotoxicity NCI cell panel IC50. The source says:
(§1) Highlighted are the compounds being made for antitumor testing.
(Formazan colour is commonly taken as a measure of viable cells.)

The next data set addresses mTOR (Homo sapiens, UniProt P42345). The data set can be described thus: mTOR inhibition. Type of data set: biochemical.
Description: as §1

For a further data set, the system named is C57BL6 mice. In words: in vivo. The following applies: for Maximum tolerated dose mg/kg ip qD × 4: MTD = >10% body weight loss, C57BL6 mice; for Ratio liver toxicity/lymphocyte toxicity: liver toxicity relative to wortmannin/decrease in blood lymphocytes relative to wortmannin.
Description: as §1

A short description of another data set: in vivo. The following applies: C57BL6, mouse, in vivo, ip.
Description: as §1

A word on the pIC50: it is −log10 of the IC50, conventionally taken in molar units. In the case of `C=CCN(/C=C1/C(=O)O[C@H](COC)[C@@]2(C)C1=C(O)C(=O)C1=C2[C@H](OC(C)=O)C[C@]2(C)C(=O)CC[C@@H]12)CC=C` [DJM2-166, Acetic acid 4-diallylaminomethylene-6-hydroxy-1-α-methoxymethyl-10β,13β-dimethyl-3,7,17-trioxo-1,3,4,7,10,11β,12,13,14α,15,16,17-dodecahydro-2-oxa-cyclopenta[α]phenanthren-11-yl ester], the pIC50 in data set [1] is 5.66; against mTOR, under 5.52. Consider `COC[C@H]1OC(=O)/C(=C/N2CCCC2)C2=C(O)C(=O)C3=C([C@H](OC(C)=O)C[C@]4(C)C(=O)CC[C@@H]34)[C@]21C` [DJM2-167, Acetic acid 6-hydroxy-1α-methoxymethyl-10β,13β-dimethyl-3,7,17-trioxo-4-pyrrolidin-1-yl-methylene-1,3,4,7,10,11β,12,13,14α,15,16,17-dodecahydro-2-oxa-cyclopenta[α]phenanthren-11-yl], for which the figures for the pIC50 (in data set [1]; against mTOR) were 6.30 and under 5.52, respectively. Consider `COC[C@H]1OC(=O)/C(=C/SCc2ccccc2)C2=C(O)C(=O)C3=C([C@H](OC(C)=O)C[C@]4(C)C(=O)CC[C@@H]34)[C@]21C` [DJM2-170], for which, in the data set with C57BL6 mice, the “Maximum tolerated dose mg/kg ip qD × 4” value is reported as 9 mg/kg and the “Ratio liver toxicity/lymphocyte toxicity” value amounted to 1.5. For `COC[C@H]1OC(=O)/C(=C/NC(C)C(=O)O)C2=C(O)C(=O)C3=C([C@H](OC(C)=O)C[C@]4(C)C(=O)CC[C@@H]34)[C@]21C` (stereo partly drawn) [DJM2-177] the same measures were 6 mg/kg and 0.1. In the data set “in vivo”, `COC[C@H]1OC(=O)c2coc3c2[C@@]1(C)C1=C(C3=O)[C@@H]2CCC(=O)[C@@]2(C)C[C@H]1OC(C)=O` [wortmannin, reference compound] registered an MTD at 4 days of 2.5 mg/kg.
